Test results reported in ChEMBL document CHEMBL1134419, “Solution-Phase parallel synthesis of 5-carboxamido 1-benzyl-3-(3-dimethylaminopropyloxy)-1H-pyrazoles as activators of soluble guanylate cyclase with improved oral bioavailability” (Bioorg Med Chem Lett, 2001).

What was measured:
[1] = Stimulation of soluble guanylate cyclase (sGC) using baculovirus expressed and partially purified bovine sGC at 1 uM concentration relative to benzydamine
Homo sapiens [2] = species on record: Homo sapiens; experiment: Percent inhibition of collagen stimulated platelet aggregation at a concentration of 10 uM; type: functional
Rattus norvegicus [3] = experiment: Area under curve at the dose of 2 mg/Kg administered perorally in rats; type: ADME, organism-based; settings: in vivo, po
[4] = Cmax at the dose of 2 mg/Kg administered perorally in rats; type: ADME, organism-based; design: dose 2 mg/Kg, route oral; settings: rat, in vivo, po
Homo sapiens [5] = species on record: Homo sapiens; experiment: Concentration required to inhibit collagen induced platelet aggregation by 50%; type: functional, organism-based
[6] = Bioavailability in rat (dose 2 mg/kg p.o.); type: ADME, organism-based; settings: in vivo, po
[7] = Tmax at the dose of 2 mg/Kg administered perorally in rats; type: ADME, organism-based; settings: rat, in vivo, po
[8] = molecular target: Soluble guanylate cyclase (Homo sapiens, UniProt O75343+P33402+Q02108+Q02153); experiment: The cGMP produced by compound was expressed as a ratio between the percentage of the DEA/NO response for the compound; type: protein-complex assay
Sequence of Soluble guanylate cyclase (Q02153 whole entry): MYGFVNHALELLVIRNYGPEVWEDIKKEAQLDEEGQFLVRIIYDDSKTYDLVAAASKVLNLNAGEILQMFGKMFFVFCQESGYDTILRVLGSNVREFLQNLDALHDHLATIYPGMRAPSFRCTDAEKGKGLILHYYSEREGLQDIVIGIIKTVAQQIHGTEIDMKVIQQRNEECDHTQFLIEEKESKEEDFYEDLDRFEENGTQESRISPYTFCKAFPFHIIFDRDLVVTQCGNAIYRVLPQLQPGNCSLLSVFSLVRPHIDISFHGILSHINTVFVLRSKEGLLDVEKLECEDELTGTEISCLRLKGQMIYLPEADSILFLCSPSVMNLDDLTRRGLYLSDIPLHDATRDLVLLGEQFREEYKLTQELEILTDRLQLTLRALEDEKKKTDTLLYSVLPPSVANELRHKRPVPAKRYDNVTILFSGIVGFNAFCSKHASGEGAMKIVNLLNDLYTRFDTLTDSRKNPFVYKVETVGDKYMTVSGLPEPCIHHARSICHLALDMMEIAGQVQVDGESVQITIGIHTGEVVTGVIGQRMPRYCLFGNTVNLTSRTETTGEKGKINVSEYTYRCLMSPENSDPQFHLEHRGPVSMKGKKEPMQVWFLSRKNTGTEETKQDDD
Sequence of Soluble guanylate cyclase (O75343 whole entry): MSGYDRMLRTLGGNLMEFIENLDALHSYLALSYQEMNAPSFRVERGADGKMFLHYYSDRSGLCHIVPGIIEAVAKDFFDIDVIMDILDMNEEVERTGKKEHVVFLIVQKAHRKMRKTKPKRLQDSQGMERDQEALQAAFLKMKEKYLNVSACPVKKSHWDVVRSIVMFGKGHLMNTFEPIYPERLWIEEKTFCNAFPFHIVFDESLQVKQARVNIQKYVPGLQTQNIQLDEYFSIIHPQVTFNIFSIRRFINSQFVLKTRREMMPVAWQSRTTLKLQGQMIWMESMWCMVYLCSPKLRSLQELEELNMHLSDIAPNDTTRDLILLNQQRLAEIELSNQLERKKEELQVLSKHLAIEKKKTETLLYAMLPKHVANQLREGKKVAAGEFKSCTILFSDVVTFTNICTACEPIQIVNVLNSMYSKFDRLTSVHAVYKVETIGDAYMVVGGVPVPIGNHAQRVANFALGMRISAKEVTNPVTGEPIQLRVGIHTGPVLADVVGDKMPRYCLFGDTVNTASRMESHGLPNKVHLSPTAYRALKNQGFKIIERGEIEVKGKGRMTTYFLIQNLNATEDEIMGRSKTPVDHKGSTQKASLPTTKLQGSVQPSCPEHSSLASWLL
Sequence of Soluble guanylate cyclase (P33402 whole entry): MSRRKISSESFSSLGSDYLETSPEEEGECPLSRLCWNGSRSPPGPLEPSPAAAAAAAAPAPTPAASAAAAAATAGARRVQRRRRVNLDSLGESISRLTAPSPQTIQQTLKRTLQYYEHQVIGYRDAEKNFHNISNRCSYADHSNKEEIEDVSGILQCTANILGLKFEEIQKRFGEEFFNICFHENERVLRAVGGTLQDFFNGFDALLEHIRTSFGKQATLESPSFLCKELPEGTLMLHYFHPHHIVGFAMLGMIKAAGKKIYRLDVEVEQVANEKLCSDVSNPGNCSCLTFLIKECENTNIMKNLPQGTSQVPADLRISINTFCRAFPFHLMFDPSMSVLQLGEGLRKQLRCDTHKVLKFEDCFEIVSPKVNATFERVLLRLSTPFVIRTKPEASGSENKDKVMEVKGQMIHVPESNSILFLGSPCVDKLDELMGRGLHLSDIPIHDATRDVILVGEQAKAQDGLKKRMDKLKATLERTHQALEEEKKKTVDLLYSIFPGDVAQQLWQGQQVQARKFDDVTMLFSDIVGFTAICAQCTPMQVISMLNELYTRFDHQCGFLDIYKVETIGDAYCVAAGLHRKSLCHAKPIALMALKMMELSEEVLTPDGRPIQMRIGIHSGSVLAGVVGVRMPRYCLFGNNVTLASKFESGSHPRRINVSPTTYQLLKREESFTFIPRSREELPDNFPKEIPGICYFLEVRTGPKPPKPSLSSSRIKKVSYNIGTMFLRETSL
Sequence of Soluble guanylate cyclase (Q02108 whole entry): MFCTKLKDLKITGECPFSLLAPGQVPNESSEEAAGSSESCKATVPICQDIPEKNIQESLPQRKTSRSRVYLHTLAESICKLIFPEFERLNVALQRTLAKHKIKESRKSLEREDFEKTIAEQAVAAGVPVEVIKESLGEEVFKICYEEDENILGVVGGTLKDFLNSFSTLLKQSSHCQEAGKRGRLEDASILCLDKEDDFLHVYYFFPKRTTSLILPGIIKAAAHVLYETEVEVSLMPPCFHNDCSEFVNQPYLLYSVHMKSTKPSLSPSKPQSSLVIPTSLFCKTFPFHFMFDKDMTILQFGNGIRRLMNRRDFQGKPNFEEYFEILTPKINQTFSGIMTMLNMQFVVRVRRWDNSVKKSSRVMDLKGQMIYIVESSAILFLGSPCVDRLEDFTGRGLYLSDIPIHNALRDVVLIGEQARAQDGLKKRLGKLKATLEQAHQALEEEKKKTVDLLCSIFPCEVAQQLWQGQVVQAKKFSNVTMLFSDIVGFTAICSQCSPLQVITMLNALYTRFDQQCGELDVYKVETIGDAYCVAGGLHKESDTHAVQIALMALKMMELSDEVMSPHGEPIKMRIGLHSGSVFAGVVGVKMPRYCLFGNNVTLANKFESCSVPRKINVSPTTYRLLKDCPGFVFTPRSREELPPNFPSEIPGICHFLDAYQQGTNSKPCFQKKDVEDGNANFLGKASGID

[9] = Tmax at the dose of 5 mg/Kg administered perorally in rats; type: ADME, organism-based; settings: rat, in vivo, po
[10] = Cmax at the dose of 5 mg/Kg administered perorally in rats; type: ADME, organism-based; design: dose 5 mg/Kg, route oral; settings: rat, in vivo, po
[11] = Percent bioavailability at the dose of 5 mg/Kg administered perorally in rats; type: ADME, organism-based; settings: rat, in vivo, po
Rattus norvegicus [12] = experiment: Area under curve at the dose of 5 mg/Kg administered perorally in rats; type: ADME, organism-based; settings: in vivo, po

Row | Relative enzyme activity [1] | SMILES | inhibition at 10 µM (Homo sapiens [2]) | further results
1 | 0.96 | COc1cc(NC(=O)c2cc(OCCCN(C)C)nn2Cc2ccccc2)cc(OC)c1OC | 66% | –
2 | 0.81 | CN(C)CCCOc1cc(C(=O)Nc2ccc(-c3csnn3)cc2)n(Cc2ccccc2)n1 | 96% | –
3 | 0.97 | CN(C)CCCOc1cc(C(=O)Nc2ccc3ccccc3n2)n(Cc2ccccc2)n1 | 57% | –
4 | 0.76 | CN(C)CCCOc1cc(C(=O)Nc2cc(F)cc(F)c2)n(Cc2ccccc2)n1 | 44% | –
5 | 0.72 | COc1cc(NC(=O)c2cc(OCCCN(C)C)nn2Cc2ccccc2)cc(OC)c1 | 87% | –
6 | 0.93 | CN(C)CCCOc1cc(C(=O)Nc2ccc(OC(F)(F)F)cc2)n(Cc2ccccc2)n1 | 85% | –
7 | 0.71 | CN(C)CCCOc1cc(C(=O)Nc2cccc(-c3cnco3)c2)n(Cc2ccccc2)n1 | 83% | –
8 | 0.86 | COc1ccc(-c2ccccc2)cc1NC(=O)c1cc(OCCCN(C)C)nn1Cc1ccccc1 | 95% | AUC (Rattus norvegicus [3]): 130 ng·h/mL; Cmax [4]: 18 ng/mL; IC50 (Homo sapiens [5]): 2.76 µM; bioavailability [6]: 22%; Tmax [7]: 7.3 h
9 | 1.02 | CN(C)CCCOc1cc(C(=O)Nc2ccccc2F)n(Cc2ccccc2)n1 | 58% | –
10 | 0.93 | CN(C)CCCOc1cc(C(=O)Nc2cccc(Cl)c2)n(Cc2ccccc2)n1 | 95% | –
11 | 0.81 | CN(C)CCCOc1cc(C(=O)Nc2ccc3c(c2)C(=O)N(C)C3=O)n(Cc2ccccc2)n1 | 64% | –
12 | 0.91 | CN(C)CCCOc1cc(C(=O)Nc2ccc(Cl)cc2F)n(Cc2ccccc2)n1 | 96% | –
13 | 0.91 | CN(C)CCCOc1cc(C(=O)Nc2cnc3ccccc3c2)n(Cc2ccccc2)n1 | 95% | AUC (Rattus norvegicus [3]): 95 ng·h/mL; Cmax [4]: 14.3 ng/mL; IC50 (Homo sapiens [5]): 3.27 µM; bioavailability [6]: 19%; Tmax [7]: 5 h
14 | 0.87 | CN(C)CCCOc1cc(C(=O)Nc2ccc(Br)cc2)n(Cc2ccccc2)n1 | 90% | AUC (Rattus norvegicus [3]): 76.9 ng·h/mL; Cmax [4]: 12.1 ng/mL; IC50 (Homo sapiens [5]): 3.58 µM; bioavailability [6]: 17%; Tmax [7]: 5 h
15 | 0.87 | CN(C)CCCOc1cc(C(=O)Nc2cccc(F)c2)n(Cc2ccccc2)n1 | 95% | –
16 | – | CN(C)CCCOc1nn(Cc2ccccc2)c2ccccc12 [BENZYDAMINE] | – | EC50 [8]: 1.02 µM
17 | 1.31 | CN(C)CCCOc1cc(C(=O)Nc2nccc3ccccc23)n(Cc2ccccc2)n1 | 80% | –
18 | 0.85 | CN(C)CCCOc1cc(C(=O)Nc2nc3c(s2)CCCC3)n(Cc2ccccc2)n1 | 92% | –
19 | 0.74 | CN(C)CCCOc1cc(C(=O)Nc2nc3ccccc3[nH]2)n(Cc2ccccc2)n1 | 13% | –
20 | 0.88 | COc1ccc(NC(=O)c2cc(OCCCN(C)C)nn2Cc2ccccc2)cc1Cl | 93% | AUC (Rattus norvegicus [3]): 32.6 ng·h/mL; Cmax [4]: 5.4 ng/mL; IC50 (Homo sapiens [5]): 2.63 µM; bioavailability [6]: 11%; Tmax [7]: 4.5 h
21 | 1.1 | COc1ccc(NC(=O)c2cc(OCCCN(C)C)nn2Cc2ccccc2)cc1 | 83% | Tmax [9]: 2.7 h; Cmax [10]: 6.4 ng/mL; IC50 (Homo sapiens [5]): 2.84 µM; bioavailability [11]: 12%; AUC (Rattus norvegicus [12]): 61.1 ng·h/mL
22 | 0.71 | CN(C)CCCOc1cc(C(=O)Nc2ccn(-c3ccccc3)n2)n(Cc2ccccc2)n1 | 75% | –
23 | 0.91 | CN(C)CCCOc1cc(C(=O)Nc2ccc3[nH]ccc3c2)n(Cc2ccccc2)n1 | 66% | –
24 | 1.06 | CN(C)CCCOc1cc(C(=O)Nc2nccs2)n(Cc2ccccc2)n1 | 27% | –
25 | 0.74 | COc1cccc(NC(=O)c2cc(OCCCN(C)C)nn2Cc2ccccc2)c1 | 96% | –
26 | 0.9 | CN(C)CCCOc1cc(C(=O)Nc2cc(F)cc(C(F)(F)F)c2)n(Cc2ccccc2)n1 | 43% | –
